What is called IC50 is the concentration at which inhibition is half-maximal.

The values that follow come from patent US8129417B2, “Substituted octahydrocyclopenta[C]pyrrol-4-amines as calcium channel blockers” (Abbott Laboratories, priority 2008, dated 2012).

Molecules are shown by their SMILES.

Sequence of human Cav2.2 (Q00975 whole entry): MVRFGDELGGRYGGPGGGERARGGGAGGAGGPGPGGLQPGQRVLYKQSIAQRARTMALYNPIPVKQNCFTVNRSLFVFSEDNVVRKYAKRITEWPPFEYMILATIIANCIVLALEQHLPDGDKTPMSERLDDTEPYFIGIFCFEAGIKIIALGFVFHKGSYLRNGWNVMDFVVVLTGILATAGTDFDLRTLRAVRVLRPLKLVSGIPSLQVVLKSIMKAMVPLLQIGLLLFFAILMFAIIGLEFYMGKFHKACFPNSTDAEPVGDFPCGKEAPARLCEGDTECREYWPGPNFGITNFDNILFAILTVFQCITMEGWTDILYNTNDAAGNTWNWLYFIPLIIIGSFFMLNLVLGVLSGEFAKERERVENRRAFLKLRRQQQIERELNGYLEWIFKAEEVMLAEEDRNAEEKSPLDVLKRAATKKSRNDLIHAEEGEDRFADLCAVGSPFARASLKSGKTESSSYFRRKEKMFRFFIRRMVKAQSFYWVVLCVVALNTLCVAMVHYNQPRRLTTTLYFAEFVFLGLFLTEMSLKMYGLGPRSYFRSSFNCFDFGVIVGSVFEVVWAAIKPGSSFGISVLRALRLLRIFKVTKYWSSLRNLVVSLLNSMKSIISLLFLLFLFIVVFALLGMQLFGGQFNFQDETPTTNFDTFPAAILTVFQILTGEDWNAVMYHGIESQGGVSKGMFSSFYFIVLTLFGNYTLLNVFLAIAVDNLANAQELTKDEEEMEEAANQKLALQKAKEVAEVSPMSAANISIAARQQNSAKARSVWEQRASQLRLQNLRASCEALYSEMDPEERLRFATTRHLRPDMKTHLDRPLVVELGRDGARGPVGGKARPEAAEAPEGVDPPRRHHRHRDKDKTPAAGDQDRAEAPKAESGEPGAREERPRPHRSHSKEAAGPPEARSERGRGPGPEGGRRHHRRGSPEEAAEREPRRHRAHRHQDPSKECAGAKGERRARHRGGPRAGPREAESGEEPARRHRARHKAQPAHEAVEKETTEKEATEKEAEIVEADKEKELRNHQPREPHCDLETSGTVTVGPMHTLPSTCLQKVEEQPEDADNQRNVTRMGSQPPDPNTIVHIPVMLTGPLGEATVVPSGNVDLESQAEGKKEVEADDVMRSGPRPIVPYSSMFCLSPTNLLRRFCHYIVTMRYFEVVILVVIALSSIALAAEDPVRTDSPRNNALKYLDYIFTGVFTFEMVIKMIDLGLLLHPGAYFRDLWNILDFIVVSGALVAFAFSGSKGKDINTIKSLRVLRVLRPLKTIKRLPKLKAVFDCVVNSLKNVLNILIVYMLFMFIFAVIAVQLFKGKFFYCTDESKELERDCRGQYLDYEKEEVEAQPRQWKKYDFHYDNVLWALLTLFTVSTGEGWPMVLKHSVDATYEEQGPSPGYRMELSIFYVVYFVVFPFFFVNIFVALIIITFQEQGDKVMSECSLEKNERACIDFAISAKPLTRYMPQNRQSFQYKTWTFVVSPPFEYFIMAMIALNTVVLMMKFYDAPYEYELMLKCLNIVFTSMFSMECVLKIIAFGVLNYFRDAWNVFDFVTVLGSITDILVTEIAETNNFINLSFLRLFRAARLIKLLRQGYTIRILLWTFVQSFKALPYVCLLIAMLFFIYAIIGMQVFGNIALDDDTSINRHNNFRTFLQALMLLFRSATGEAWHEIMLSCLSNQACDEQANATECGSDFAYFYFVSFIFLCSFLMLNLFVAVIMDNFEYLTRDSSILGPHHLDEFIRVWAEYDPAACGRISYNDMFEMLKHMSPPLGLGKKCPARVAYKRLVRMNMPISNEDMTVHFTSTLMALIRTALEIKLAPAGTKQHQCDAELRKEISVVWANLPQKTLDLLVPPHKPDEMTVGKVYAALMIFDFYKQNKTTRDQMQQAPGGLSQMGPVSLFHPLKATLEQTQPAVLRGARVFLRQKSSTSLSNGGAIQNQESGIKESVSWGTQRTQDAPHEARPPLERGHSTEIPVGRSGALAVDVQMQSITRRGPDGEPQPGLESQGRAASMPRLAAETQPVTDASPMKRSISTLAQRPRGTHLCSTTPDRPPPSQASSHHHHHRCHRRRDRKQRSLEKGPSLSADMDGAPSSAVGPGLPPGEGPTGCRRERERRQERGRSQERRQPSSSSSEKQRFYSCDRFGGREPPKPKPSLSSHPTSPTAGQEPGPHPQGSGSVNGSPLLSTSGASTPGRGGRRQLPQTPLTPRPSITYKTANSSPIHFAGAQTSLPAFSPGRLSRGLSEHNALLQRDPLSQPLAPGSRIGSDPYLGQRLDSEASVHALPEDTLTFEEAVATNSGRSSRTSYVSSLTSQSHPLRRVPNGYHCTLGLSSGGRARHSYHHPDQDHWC
Sequence of human Cav2.2 (P54289 25-946 partner limits assumed): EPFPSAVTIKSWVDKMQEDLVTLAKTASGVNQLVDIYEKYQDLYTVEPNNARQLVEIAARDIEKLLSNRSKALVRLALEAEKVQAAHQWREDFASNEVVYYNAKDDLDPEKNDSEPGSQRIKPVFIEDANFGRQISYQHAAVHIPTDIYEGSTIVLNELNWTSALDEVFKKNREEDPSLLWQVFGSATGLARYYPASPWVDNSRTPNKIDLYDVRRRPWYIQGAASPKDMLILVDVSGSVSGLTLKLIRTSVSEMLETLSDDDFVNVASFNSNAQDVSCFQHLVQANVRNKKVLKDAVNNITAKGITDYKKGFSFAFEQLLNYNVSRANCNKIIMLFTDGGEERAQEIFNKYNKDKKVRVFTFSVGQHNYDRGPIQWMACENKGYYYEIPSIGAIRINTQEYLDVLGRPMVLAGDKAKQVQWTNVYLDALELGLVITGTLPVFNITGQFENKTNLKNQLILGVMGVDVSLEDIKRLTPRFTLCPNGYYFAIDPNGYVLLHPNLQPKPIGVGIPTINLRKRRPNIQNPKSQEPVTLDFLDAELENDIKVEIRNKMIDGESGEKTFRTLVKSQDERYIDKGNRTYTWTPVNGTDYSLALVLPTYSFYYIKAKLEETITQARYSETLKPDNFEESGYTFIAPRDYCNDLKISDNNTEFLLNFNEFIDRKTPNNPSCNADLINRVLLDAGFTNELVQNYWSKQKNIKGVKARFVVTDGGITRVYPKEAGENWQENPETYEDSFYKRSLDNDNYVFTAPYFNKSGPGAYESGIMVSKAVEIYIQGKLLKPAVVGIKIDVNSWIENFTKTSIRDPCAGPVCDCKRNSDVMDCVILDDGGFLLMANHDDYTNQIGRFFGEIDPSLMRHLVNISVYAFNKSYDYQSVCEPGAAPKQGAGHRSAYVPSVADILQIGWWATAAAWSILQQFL
Sequence of human Cav2.2 (P54289 947-1103 partner limits assumed): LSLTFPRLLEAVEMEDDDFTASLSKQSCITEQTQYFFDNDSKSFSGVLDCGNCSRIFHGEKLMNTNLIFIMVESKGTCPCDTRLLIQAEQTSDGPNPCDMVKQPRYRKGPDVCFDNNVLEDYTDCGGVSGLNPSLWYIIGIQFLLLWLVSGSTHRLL
Sequence of human Cav2.2 (P54284 whole entry partner): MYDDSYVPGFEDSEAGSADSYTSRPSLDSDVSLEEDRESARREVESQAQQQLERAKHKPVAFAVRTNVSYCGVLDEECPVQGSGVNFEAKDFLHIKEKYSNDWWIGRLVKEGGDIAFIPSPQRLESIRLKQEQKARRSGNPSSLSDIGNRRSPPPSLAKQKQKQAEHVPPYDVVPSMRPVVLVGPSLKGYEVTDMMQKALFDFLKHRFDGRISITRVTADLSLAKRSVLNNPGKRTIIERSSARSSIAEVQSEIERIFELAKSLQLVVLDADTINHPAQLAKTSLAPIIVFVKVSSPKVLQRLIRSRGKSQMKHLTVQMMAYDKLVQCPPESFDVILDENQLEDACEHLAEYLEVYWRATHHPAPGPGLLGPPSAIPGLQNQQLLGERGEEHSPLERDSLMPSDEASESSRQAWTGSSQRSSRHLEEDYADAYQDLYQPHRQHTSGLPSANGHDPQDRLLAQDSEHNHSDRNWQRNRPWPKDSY

This experiment concerns the target human Cav2.2 (Homo sapiens, UniProt Q00975). As to the kind of experiment: Assessment of calcium channel activity using FLIPR (Ca2+ influx in IMR32 cells). To be noted: 60 minute pre-incubation with compound, 2 μM nifedipine, depolarized with 80 mM KCl. In kind it is cell-based. In outline:
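IC50 came from sigmoidal non-linear regression of percent inhibition, relative to uninhibited activity, across compound concentrations. Calcium influx was measured by FLIPR in IMR32 cells plated at 1-1.2×10^5 cells/well and cultured 48 h at 37 °C.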
Take `CN(C(=O)OC(C)(C)C)[C@@H](CC(C)(C)C)C(=O)N[C@@H]1CC[C@H]2CN(S(=O)(=O)c3cccc(C(F)(F)F)c3)C[C@H]21` [Example 338, tert-butyl(S)-4,4-dimethyl-1-oxo-1-((3aS,4R,6aR)-2-(3-(trifluoromethyl)phenylsulfonyl)octahydrocyclopenta[c]pyrrol-4-ylamino)pentan-2-yl(methyl)carbamate]: the IC50 is 0.23 µM. The value for `CN(C(=O)OC(C)(C)C)[C@@H](CC(C)(C)C)C(=O)N[C@@H]1CC[C@H]2CN(S(=O)(=O)c3ccc(C(F)(F)F)cc3)C[C@H]21` [Example 339, tert-butyl(S)-4,4-dimethyl-1-oxo-1-((3aS,4R,6aR)-2-(4-(trifluoromethyl)phenylsulfonyl)octahydrocyclopenta[c]pyrrol-4-ylamino)pentan-2-yl(methyl)carbamate] was 1.11 µM. The value for `CC(C)[C@@H](C(=O)N[C@@H]1CC[C@H]2CN(S(=O)(=O)c3cccc(C(F)(F)F)c3)C[C@H]21)N(C)C(=O)OC(C)(C)C` [Example 340, tert-butyl methyl((S)-3-methyl-1-oxo-1-((3aS,4R,6aR)-2-(3-(trifluoromethyl)phenylsulfonyl)octahydrocyclopenta[c]pyrrol-4-ylamino)butan-2-yl)carbamate] was 1.03 µM; that for `CC(C)(C)OC(=O)N[C@H](C(=O)N[C@H]1CC[C@@H]2CN(S(=O)(=O)c3ccc(C(F)(F)F)cc3)C[C@@H]21)C(C)(C)C` [Example 341, tert-butyl(S)-3,3-dimethyl-1-oxo-1-((3aR,4S,6aS)-2-(4-(trifluoromethyl)phenylsulfonyl)octahydrocyclopenta[c]pyrrol-4-ylamino)butan-2-ylcarbamate] was 2.01 µM. The same measure for `CC(C)(C)OC(=O)N[C@H](C(=O)N[C@@H]1CC[C@H]2CN(S(=O)(=O)c3ccc(C(F)(F)F)cc3)C[C@H]21)C(C)(C)C` [Example 342, tert-butyl(S)-3,3-dimethyl-1-oxo-1-((3aS,4R,6aR)-2-(4-(trifluoromethyl)phenylsulfonyl)octahydrocyclopenta[c]pyrrol-4-ylamino)butan-2-ylcarbamate]: 2.17 µM; for `CCCC[C@@H](C(=O)N[C@H]1CC[C@@H]2CN(S(=O)(=O)c3ccc(C(F)(F)F)cc3)C[C@@H]21)N(C)C(=O)OC(C)(C)C` [Example 343, tert-butyl methyl((S)-1-oxo-1-((3aR,4S,6aS)-2-(4-(trifluoromethyl)phenylsulfonyl)octahydrocyclopenta[c]pyrrol-4-ylamino)hexan-2-yl)carbamate]: 1.01 µM; for `CC(C)(C)C[C@H](NC(=O)OC(C)(C)C)C(=O)N[C@H]1CC[C@@H]2CN(S(=O)(=O)c3ccc(C(F)(F)F)cc3)C[C@@H]21` [Example 344, tert-butyl(S)-4,4-dimethyl-1-oxo-1-((3aR,4S,6aS)-2-(4-(trifluoromethyl)phenylsulfonyl)octahydrocyclopenta[c]pyrrol-4-ylamino)pentan-2-ylcarbamate]: 0.99 µM. Consider `CC(C)C[C@@H](C(=O)N[C@@H]1CC[C@H]2CN(C(=O)c3cccc(C(F)(F)F)c3)C[C@H]21)N1CCCC1` [Example 345, (2S)-4-methyl-2-pyrrolidin-1-yl-N-{(3aS,4R,6aR)-2-[3-(trifluoromethyl)benzoyl]octahydrocyclopenta[c]pyrrol-4-yl}pentanamide], for which the IC50 turned out to be 4.32 µM.

Turning to `CN[C@@H](CC(C)(C)C)C(=O)N[C@@H]1CC[C@H]2CN(Cc3ccccc3)C[C@H]21` [Example 358, N^1-[(3aS,4R,6aR)-2-benzyloctahydrocyclopenta[c]pyrrol-4-yl]-N^2,4-dimethyl-L-leucinamide], the IC50 worked out at 9 µM.

Take `CN[C@@H](CC(C)C)C(=O)N[C@@H]1CC[C@@H]2CN(Cc3ccccc3)C[C@@H]21` [Example 364, N^1-[(3aR,4R,6aS)-2-benzyloctahydrocyclopenta[c]pyrrol-4-yl]-N^2-methyl-L-leucinamide]: the IC50 was found to be 8.12 µM.
